Experimental data from PMC9826432 (Environmental Toxicology and Chemistry, 2022).

What was measured:
[1] = molecular target: T1, human estrogen receptor α (ERα) (Homo sapiens, UniProt P03372); assay: lyticase Yeast Estrogen Screen; type: cell-based; details: L‐YES; based on PC10 values, 3 replicates, considering molecular weights
T1 sequence (P03372 1-595): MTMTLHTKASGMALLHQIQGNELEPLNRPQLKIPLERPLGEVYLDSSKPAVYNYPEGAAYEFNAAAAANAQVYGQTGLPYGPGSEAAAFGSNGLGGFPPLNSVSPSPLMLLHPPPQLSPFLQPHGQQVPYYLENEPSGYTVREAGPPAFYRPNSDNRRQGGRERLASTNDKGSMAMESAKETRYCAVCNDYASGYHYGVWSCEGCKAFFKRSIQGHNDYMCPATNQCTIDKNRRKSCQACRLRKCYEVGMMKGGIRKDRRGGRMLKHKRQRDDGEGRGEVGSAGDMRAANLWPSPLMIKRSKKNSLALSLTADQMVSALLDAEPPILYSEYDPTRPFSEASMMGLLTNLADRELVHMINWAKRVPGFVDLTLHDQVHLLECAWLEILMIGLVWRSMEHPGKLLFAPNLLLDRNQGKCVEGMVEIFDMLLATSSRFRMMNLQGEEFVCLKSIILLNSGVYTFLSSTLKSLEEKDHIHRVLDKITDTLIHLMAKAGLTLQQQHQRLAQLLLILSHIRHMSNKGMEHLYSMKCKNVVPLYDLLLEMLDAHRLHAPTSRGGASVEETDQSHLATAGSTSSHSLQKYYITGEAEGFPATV

[2] = molecular target: T1, human estrogen receptor α (ERα); assay: ERα‐CALUX human cell-based reporter gene assay; details: based on PC10 values, 3 replicates, considering molecular weights
aquatic organisms = details: threshold for effluents, tenfold dilution assumed; ref Loos et al., 2018; cited from earlier work

| REP (relative estrogenic potency in comparison to 17β‐estradiol) [1] | REP (relative estrogenic potency in comparison to 17β‐estradiol) [2] | Compound | 10× diluted PNEC (aquatic organisms) [ng/L] |
| --- | --- | --- | --- |
| 4.5E−05 | 4.2E−05 | CC(C)(c1ccc(O)cc1)c1ccc(O)cc1 [BPA, bisphenol A] |  |
|  |  | C#C[C@]1(O)CC[C@H]2[C@@H]3CCc4cc(O)ccc4[C@H]3CC[C@@]21C [EE2, 17α‐ethinylestradiol] | 0.35 |
